Data taken from publication PMC12348107, “Saponins from Oxybasis rubra (L.) S.Fuentes, Uotila & Borsh: Comparative Assessment of Cytotoxic Potential Against a Wide Panel of Cancer Cell Lines” (Molecules, 2025).
Several values for one entry are separate records, joined by “and”; a condition that tells them apart may be missing. Equal entries are not always repeated. Where two headings read alike, the source gives them in different places.

Experiments:
[1] = tested on: Caco-2 colon adenocarcinoma cells; experiment: LDH cytotoxicity assay, Caco-2; assay type: cell-based; conditions: Homo sapiens, LDH test, read-out: Cytotoxic activity expressed as IC50
Experimental: (§1) The cytotoxic activity was tested on human cancer and normal cell lines, grouped in several panels: skin (malignant melanoma HTB-140, malignant melanoma A375, melanoma WM793, and normal keratinocytes HaCaT), prostate (prostate carcinoma DU-145, prostate carcinoma PC3, and prostate epithelial cells PNT2), thyroid (thyroid carcinoma FTC133, thyroid carcinoma, undifferentiated 8505C), gastrointestinal panel (hepatocellular carcinoma HepG2, colon adenocarcinoma Caco-2, and colon adenocarcinoma HT29), and single line of lung carcinoma A549. Cells were grown at standard conditions (37 °C, 5% CO2, relative humidity) and culture media (DMEM/F12 for PNT2, WM793, HT29, A549; DMEM Low Glucose for DU-145; DMEM High Glucose for A375, HaCaT, A549; MEM with NEAA for Caco-2), supplemented with 10% fetal bovine serum (FBS) and 1% antibiotic solution (10,000 U penicillin and 10 mg streptomycin/mL). All cell lines, cell culture media, and supplements were from Merck (Seelze, Germany).
(§2) Before the experiment, cells were seeded onto 96-well plates for 24 h, at a density of 1.5 × 10^4 cells/ well. Then the tested compounds (5–100 μg/mL) were added and incubated for 24 and 48 h. Cell viability was measured with the lactate dehydrogenase (LDH) assay by Clontech (Clontech, Mountain View, CA, USA), as described previously. The absorbance was measured at 490 nm using a Biotek Synergy microplate reader (BioTek Instruments Inc., Winooski, VT, USA). Cell viability was expressed as a percentage of dead cells. Each experiment was conducted in triplicate. Doxorubicin was used as a reference cytostatic.
(§3) The results were expressed as mean (±SD). Data were analyzed using Statistica v.13.3 (StatSoft, Tulsa, OK, USA). The IC50 values were calculated using OriginPro 2020b (64-bit) 9.7.5.184 (Academic) (OriginLab Corporation, Northampton, MA, USA). One-way analysis of variance (ANOVA) and the post-hoc Tukey multiple comparison test were used. The statistical significance was defined at the probability level of p < 0.05. Principal component analysis (PCA) and hierarchical cluster analysis (HCA) were performed using Statistica v.13.3 (StatSoft, Tulsa, OK, USA). Prior to PCA, the Bartlett’s sphericity test was conducted, and the Kaiser-Meyer-Olkin Measure of Sampling Adequacy index (KMO) was examined. In the simple model, for each compound tested (1–4), the cell lines were the cases, and the different concentrations of the compound were the parameters. This was followed by a PCA model in which the cell lines were the parameters, and the compounds (at different concentrations) were the cases. All PCA models were based on a correlation matrix. Hierarchical cluster analysis (CA) based on standardized data was performed using Ward’s method and Euclidean distance. The results were grouped based on Mojena’s rule.

[2] = tested on: HT29 colon adenocarcinoma cells; experiment: LDH cytotoxicity assay, HT29; assay type: cell-based; conditions: Homo sapiens, HT-29, LDH test, read-out: Cytotoxic activity expressed as IC50
Experimental: as §1, §2, §3

[3] = tested on: HTB-140 malignant melanoma cells; experiment: LDH cytotoxicity assay, HTB-140; assay type: cell-based; conditions: Homo sapiens, LDH test, read-out: Cytotoxic activity expressed as IC50
Experimental: as §1, §2, §3

[4] = tested on: PC3 metastatic prostate carcinoma cells; experiment: LDH cytotoxicity assay, PC3; assay type: cell-based; conditions: Homo sapiens, LDH test, read-out: Cytotoxic activity expressed as IC50
Experimental: as §1, §2, §3

[5] = tested on: HepG2 hepatocellular carcinoma cells; experiment: LDH cytotoxicity assay, HepG2; assay type: cell-based; conditions: Homo sapiens, LDH test, read-out: Cytotoxic activity expressed as IC50
Experimental: as §1, §2, §3

[6] = tested on: A375 malignant melanoma cells; experiment: LDH cytotoxicity assay, A375; assay type: cell-based; conditions: Homo sapiens, A-375, LDH test, read-out: Cytotoxic activity expressed as IC50
Experimental: as §1, §2, §3

[7] = tested on: A549 lung carcinoma cells; experiment: LDH cytotoxicity assay, A549; assay type: cell-based, human; conditions: Homo sapiens, LDH test, read-out: Cytotoxic activity expressed as IC50
Experimental: as §1, §2, §3

[8] = tested on: WM793 primary melanoma cells; experiment: LDH cytotoxicity assay, WM793; assay type: cell-based; conditions: Homo sapiens, LDH test, read-out: Cytotoxic activity expressed as IC50
Experimental: as §1, §2, §3

[9] = tested on: 8505C undifferentiated thyroid carcinoma cells; experiment: LDH cytotoxicity assay, 8505C; assay type: cell-based; conditions: Homo sapiens, LDH test, read-out: Cytotoxic activity expressed as IC50
Experimental: as §1, §2, §3

[10] = tested on: FTC133 follicular thyroid carcinoma cells; experiment: LDH cytotoxicity assay, FTC133; assay type: cell-based; conditions: Homo sapiens, FTC-133, LDH test, read-out: Cytotoxic activity expressed as IC50
Experimental: as §1, §2, §3

[11] = LDH cytotoxicity assay, PNT2; assay type: cell-based, human; conditions: human, PNT2 prostate epithelial cells (normal), PNT2 normal cells, LDH test, read-out: Cytotoxic activity expressed as IC50; for IC50 at 24 h: 24 h incubation
Experimental: as §1, §2, §3

[12] = tested on: DU-145 metastatic prostate carcinoma cells; experiment: LDH cytotoxicity assay, DU-145; assay type: cell-based, human; conditions: Homo sapiens, LDH test, read-out: Cytotoxic activity expressed as IC50
Experimental: as §1, §2, §3

[13] = LDH cytotoxicity assay, HaCaT; assay type: cell-based, human; conditions: human, HaCaT normal keratinocytes, HaCaT normal cells, LDH test, read-out: Cytotoxic activity expressed as IC50; for IC50 at 24 h: 24 h incubation
Experimental: as §1, §2, §3

[14] = A549, 24 h, A549, 24 h incubation

Structure (SMILES): CC1(C)CC[C@]2(C(=O)O)CC[C@]3(C)C(=CC[C@@H]4[C@@]5(C)CC[C@H](O)[C@@](C)(CO)[C@@H]5CC[C@]43C)[C@@H]2C1 [Compound 4, hederagenin]
- IC50 ([1]; Caco-2, 24 h incubation): 191 µM and 90.1 µg/mL
- IC50 ([1]; Caco-2, 48 h incubation): 158 µM and 74.9 µg/mL
- IC50 ([2]; HT29, 24 h incubation): > 100 µg/mL
- IC50 ([2]; HT29, 48 h incubation): 191 µM and 90.3 µg/mL
- IC50 ([3]; HTB-140, 24 h incubation): > 100 µg/mL
- IC50 ([3]; HTB-140, 48 h incubation): > 100 µg/mL
- IC50 ([4]; PC3, 24 h incubation): > 100 µg/mL
- IC50 ([4]; PC3, 48 h incubation): 164 µM and 77.7 µg/mL
- IC50 ([5]; HepG2, 24 h incubation): > 100 µg/mL
- IC50 ([5]; HepG2, 48 h incubation): > 100 µg/mL
- IC50 ([6]; A375, 24 h incubation): > 100 µg/mL
- IC50 ([6]; A375, 48 h incubation): > 100 µg/mL
- IC50 [7, 14]: > 100 µg/mL
- IC50 ([7]; A549, 48 h, A549, 48 h incubation): 208 µM and 98.2 µg/mL
- IC50 ([8]; WM793, 24 h incubation): > 100 µg/mL
- IC50 ([8]; WM793, 48 h incubation): > 100 µg/mL
- IC50 ([9]; 24 h incubation): > 100 µg/mL
- IC50 ([9]; 48 h incubation): > 100 µg/mL
- IC50 ([10]; FTC133, 24 h incubation): > 100 µg/mL
- IC50 ([10]; FTC133, 48 h incubation): > 100 µg/mL
- IC50 at 24 h [11]: 195 µM and 92 µg/mL
- IC50 at 48 h ([11]; 48 h incubation): 159 µM and 75.1 µg/mL
- IC50 ([12]; DU-145, 24 h incubation): 109 µM and 51.5 µg/mL
- IC50 ([12]; DU-145, 48 h incubation): 42.9 µM and 20.3 µg/mL
- IC50 at 24 h [13]: > 100 µg/mL
- IC50 at 48 h ([13]; 48 h incubation): > 100 µg/mL

Structure (SMILES): COc1cccc2c1C(=O)c1c(O)c3c(c(O)c1C2=O)C[C@@](O)(C(=O)CO)C[C@@H]3O[C@H]1C[C@H](N)[C@H](O)[C@H](C)O1 [DOX, doxorubicin]
- IC50 ([1]; Caco-2, 24 h incubation): 5.43 µM and 2.95 µg/mL
- IC50 ([2]; HT29, 24 h incubation): 2.06 µM and 1.12 µg/mL
- IC50 ([3]; HTB-140, 24 h incubation): 9.03 µM and 4.91 µg/mL
- IC50 ([4]; PC3, 24 h incubation): > 40 µg/mL
- IC50 ([5]; HepG2, 24 h incubation): 2.05 µM and 1.11 µg/mL
- IC50 ([6]; A375, 24 h incubation): 790 nM and 0.43 µg/mL
- IC50 [7, 14]: 2.01 µM and 1.09 µg/mL
- IC50 ([8]; WM793, 24 h incubation): > 40 µg/mL
- IC50 ([9]; 24 h incubation): > 40 µg/mL
- IC50 ([10]; FTC133, 24 h incubation): 8.56 µM and 4.65 µg/mL
- IC50 at 24 h [11]: 2.01 µM and 1.09 µg/mL
- IC50 ([12]; DU-145, 24 h incubation): 4.53 µM and 2.46 µg/mL
- IC50 at 24 h [13]: 7.75 µM and 4.21 µg/mL
